The text below walks through data of paper PMC12022973, “Proteomimetic Strategy for the Modulation of Intrinsically Disordered Protein MYC” (Journal of the American Chemical Society, 2025).

Assay [1] addresses T1, full-length His6-Max (MAX^1-160) (Homo sapiens, UniProt P61244).
T1 construct: N.B. (MAX^1-160)
In words: Fluorescence polarization direct binding to His6-MAX. The settings on record: FP direct binding; 15 nM FITC-labeled peptide; His6-MAX from 10 μM; 1X PBS, 1 mM DTT, 5% glycerol, 0.1% pluronic acid, pH 6.7; 25 °C. The method, then:
(§1) Fluorescence Polarization Binding Assay
(§2) The relative affinities of FITC-CHDMax-1 to His6-Myc353-436 and full-length His6-Max were
(§3) determined using fluorescence polarization-based direct binding assay. The polarization
(§4) experiments were performed using a DTX 880 Multimode Detector (Beckman) at 25 °C with
(§5) excitation and emission wavelengths of 485 and 525 nm, respectively. Each polarization
(§6) experiment was performed in a 96-well round bottom plate (Greiner) in assay buffer: 1X PBS, 1
(§7) mM DTT, 5% glycerol, 0.1% pluronic acid, pH 6.7. The binding affinity (KD) values reported for
(§8) each peptide are from experiments performed in triplicate. Raw values were fit to a sigmoidal
(§9) dose-response nonlinear regression model in GraphPad Prism 6.0.
(§10) All binding experiments with FITC-labeled peptides to His6-Myc353-436 or His6-Max were performed
(§11) under the same conditions. Briefly, serial dilutions of His6-Myc353-436 and His6-Max were made
(§12) from 10 μM into 15 nM of FITC-labeled peptide in assay buffer. KD was determined using the
(§13) KD1 = (RT*(1-FSB) + LST*FSB2)/FSB-LST
(§14) RT = Total concentration of His6-Myc353-436 or His6-Max
(§15) LST = Total concentration of FITC-labeled peptide
(§16) FSB = Fraction of bound FITC-labeled peptide

In assay [2] the target is T2, recombinant human MYC^353–437 protein (His6-MYC^353–437) (Homo sapiens, UniProt P01106).
T2 construct: recombinant human MYC^353–437 protein; made in house; host or cells: E. coli BL21(DE3), pET151-D-TOPO-cMyc vector
T2 sequence (P01106 368-452): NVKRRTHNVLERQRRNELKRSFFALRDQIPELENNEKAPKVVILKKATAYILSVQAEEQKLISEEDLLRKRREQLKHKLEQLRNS
In words: Fluorescence polarization direct binding of fluorescein-labeled CHDs to His6-MYC353-437. The settings on record: FP direct binding; 15 nM FITC-labeled peptide; His6-MYC serial dilutions from 10 μM; 1X PBS, 1 mM DTT, 5% glycerol, 0.1% pluronic acid, pH 6.7; 25 °C; triplicate; MYC aggregates above 5 μM; read-out: Binding Affinity MYC^353-436, Kd. The method, then: (§17) pET151-D-TOPO-cMyc vector was kindly provided by Dr. Edward Prochownik from the
(§18) Department of Pediatrics at UPMC Children’s Hospital of Pittsburgh. Expression and purification
(§19) of Myc353-437 were performed using an established protocol with minor modifications.7 BL21(DE3)
(§20) cells were used to express recombinant Myc353-437 protein. Bacteria were grown at 37 °C to OD600
(§21) of 0.8 followed by 1 mM IPTG induction and 16-18h growth at RT. Cells were harvested via
(§22) centrifugation at 4,000 rpm at 4 °C and the pellet was resuspended in 10 mL of lysis buffer (8 M
(§23) urea, 100 mM NaH2PO4, 10 mM Tris HCl, pH 8) supplemented with protease inhibitor cocktail
(§24) (PierceTM Protease Inhibitor Tablets) and benzonase nuclease. Suspensions were sonicated on
(§25) ice using a Branson Cell Disruptor 200 and centrifuged at 12,000 rpm for 45 min at 4 °C. Clarified
(§26) lysate was applied to a column containing pre-equilibrated HisPur Ni-NTA Superflow Agarose
(§27) (ThermoFisher Scientific) for overnight at 4 °C. The resin beads were washed with 10 mL of
(§28) additional lysis buffer followed by three washes of 10 mL wash buffer (8 M urea, 100 mM
NaH2PO4, 10 mM Tris HCl, 10 mM imidazole). The target protein was eluted with elution buffer (8
M urea, 100 mM NaH2PO4, 10 mM Tris HCl, 250 mM imidazole) and buffer exchanged into 150
mM NaCl, 50 mM Tris HCl, 5% glycerol, pH 6.7. Protein was concentrated by ultra-filtration (3000
MWCO; Amicon Ultra-15 Centrifugal Filter units from EMD Millipore) followed by TEV cleavage
(1:100 w/w of protease to target protein) in 150 mM NaCl, 50 mM Tris HCl, 5% glycerol, pH 6.7
for 24 hrs at 4 °C. The cleaved protein is further purified by reverse-phase HPLC (gradient 10-60
acetonitrile/water with 0.1% TFA over 35 min) to remove TEV protease and un-cleaved protein.
Purified Myc353-437 was lyophilized and stored at -20 °C. Myc353-437 identity was characterized by
as §1, §2, §3, §4, §5, §6, §7, §8, §9, §10, §11, §12, §13, §14, §15, §16

Another assay has as its target T3, MYC/MAX complex (Homo sapiens, UniProt P01106).
T3 construct: we used recombinant MYC protein (MYC^353–437); His6 (N)
Briefly: Fluorescence polarization direct binding to the MYC/MAX complex. The settings on record: FP direct binding of fluorescein-labeled peptide to preformed MYC/MAX heterodimer; read-out: CHD^Max-1 Binding Affinity, Kd (MYC/MAX). The method, then:
as §17, §18, §19, §20, §21, §22, §23, §24, §25, §26, §27, §28
NaH2PO4, 10 mM Tris HCl, 10 mM imidazole). The target protein was eluted with elution buffer (8 […]
Fluorescence Polarization Binding Assay […]
determined using fluorescence polarization-based direct binding assay. […]
from 10 μM into 15 nM of FITC-labeled peptide in assay buffer. KD was determined using the […]
Background: In fluorescence polarisation assays a small probe gives low polarisation when free and higher when bound to something large.

Starred links: 1 amine or outer side, 2 acyl side, 3 side chain; linkers in the order of their positions; H or OH if unused. Positions of bridges follow the written chain, without caps; N, C: chain ends. Residues, ends and D or L forms follow the SMILES beside them. Chains are numbered I, II in the order given. X1 = c1cc(C[*:1])ccc1COCc1ccc(C[*:2])cc1

T3 sequence (P01106 368-452): as above
T3 sequence (P61244 whole entry partner): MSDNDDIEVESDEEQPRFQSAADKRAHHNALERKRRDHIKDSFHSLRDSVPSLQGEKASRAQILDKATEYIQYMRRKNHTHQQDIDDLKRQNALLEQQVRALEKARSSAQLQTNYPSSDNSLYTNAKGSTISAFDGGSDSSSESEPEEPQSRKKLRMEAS
T1 sequence (P61244 whole entry): as the sequence (P61244 whole entry partner) above

`CC[C@H](C)[C@H](NC(=O)[C@H](CCCCN)NC(=O)[C@H](CCC(=O)O)NC(=O)[C@H](CCCNC(=N)N)NC(=O)[C@H](CC(C)C)NC(C)=O)C(=O)N[C@@H](C)C(=O)N[C@H](C(=O)N[C@@H](CC(C)C)C(=O)N[C@@H](CCC(N)=O)C(=O)N[C@@H](Cc1c[nH]c2ccccc12)C(=O)N[C@@H](CSCc1ccc(COCc2ccc(CSC[C@H](NC(=O)[C@H](CC(C)C)NC(=O)[C@H](CCC(=O)O)NC(=O)[C@H](CCC(=O)O)NC(=O)[C@@H](NC(=O)[C@H](CCC(=O)O)NC(=O)[C@H](Cc3c[nH]c4ccccc34)NC(=O)[C@H](CCC(N)=O)NC(=O)[C@H](Cc3c[nH]cn3)NC(=O)[C@@H](NC(=O)[C@H](CCC(=O)O)NC(=O)[C@H](CC(N)=O)NC(=O)[C@H](CCCCN)NC(=O)[C@H](CCCNC(=N)N)NC(=O)[C@H](CCCNC(=N)N)NC(=O)[C@H](CC(C)C)NC(C)=O)[C@@H](C)O)[C@@H](C)CC)C(N)=O)cc2)cc1)C(=O)N[C@H](C(=O)N[C@@H](CCC(=O)O)C(=O)N[C@@H](CCC(=O)O)C(=O)N[C@@H](CC(C)C)C(=O)N[C@@H](CCCNC(=N)N)C(=O)N[C@@H](CCCCN)C(N)=O)[C@@H](C)CC)[C@@H](C)O` [CHD^Max-1] (I: Ac-LREKIATLQWCIEELRK-NH2 / II: Ac-LRRKNETHQWEIEELC-NH2; linker I:11-II:16 via X1): the “CHD^Max-1 Binding Affinity, Kd (MAX^1-160)” value in assay [1] is reported as “N.B”. For the same compound, the Kd in assay [2] was found to be 0.35 ± 0.017 µM; at MYC/MAX complex, 0.46 ± 0.15 µM.
